Data published in PubChem BioAssay AID330 (DTP/NCI, 2004).
Where “and” joins values, the source holds several entries; their conditions need not be identical. Identical values can stand only once. Inconclusive results and toxic doses are left out. How the source made its calls: active means survival T/C of 150% or more; inactive means T/C below 125% in these data.

System: P388 leukemia ip, CD2F1 mice, survival T/C
Assay: NCI In Vivo Anticancer Drug Screen. Data for tumor model P388 Leukemia (intraperitoneal) in CD2F1 (CDF1) mice
Conditions: endpoint: median survival time, higher = longer survival
Summary of the method: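 Mice carrying the transplanted tumor received test compound or vehicle. Survival was recorded in each group, and the value is the treated-group measurement divided by that of the vehicle-treated control group.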

[1] = dose: 6.25 mg/kg/injection, schedule: Q01DX009 (ip), vehicle: saline with Tween-80
[2] = dose: 12.5 mg/kg/injection, schedule: Q01DX009 (ip), vehicle: saline with Tween-80
[3] = dose: 50.0 mg/kg/injection, schedule: Q01DX005 (ip), vehicle: Klucel (hydroxypropylcellulose) (HPC)
[4] = dose: 100.0 mg/kg/injection, schedule: Q01DX005 (ip), vehicle: Klucel (hydroxypropylcellulose) (HPC)
[5] = dose: 200.0 mg/kg/injection, schedule: Q01DX005 (ip), vehicle: Klucel (hydroxypropylcellulose) (HPC)
[6] = dose: 6.25 mg/kg/injection, schedule: Q01DX009 (ip), vehicle: Klucel (hydroxypropylcellulose) (HPC)
[7] = dose: 12.5 mg/kg/injection, schedule: Q01DX009 (ip), vehicle: Klucel (hydroxypropylcellulose) (HPC)
[8] = dose: 25.0 mg/kg/injection, schedule: Q01DX009 (ip), vehicle: Klucel (hydroxypropylcellulose) (HPC)
[9] = dose: 50.0 mg/kg/injection, schedule: Q01DX009 (ip), vehicle: Klucel (hydroxypropylcellulose) (HPC)
[10] = dose: 100.0 mg/kg/injection, schedule: Q04DX003 (ip), vehicle: saline with Tween-80
[11] = dose: 200.0 mg/kg/injection, schedule: Q04DX003 (ip), vehicle: saline with Tween-80
[12] = dose: 400.0 mg/kg/injection, schedule: Q04DX003 (ip), vehicle: saline with Tween-80
[13] = dose: 100.0 mg/kg/injection, schedule: Q01DX001 (ip), vehicle: saline with Tween-80
[14] = dose: 100.0 mg/kg/injection, schedule: Q01DX009 (ip), vehicle: Klucel (hydroxypropylcellulose) (HPC)
[15] = dose: 50.0 mg/kg/injection, schedule: Q01DX005 (ip), vehicle: saline with Tween-80
[16] = dose: 100.0 mg/kg/injection, schedule: Q01DX005 (ip), vehicle: saline with Tween-80
[17] = dose: 200.0 mg/kg/injection, schedule: Q01DX005 (ip), vehicle: saline with Tween-80

Measured: T/C

O=C(CNC(=O)c1ccc(Cl)cc1Cl)N/N=C/c1ccc(Cl)c(Cl)c1
inactive: dose: 3.13 mg/kg/injection, schedule: Q01DX009 (ip), vehicle: saline with Tween-80 104 % of control | [1] 108 % of control | [2] 104 % of control

O=C/C=C/c1ccc2c(c1)OC(CO)C(c1ccc(O)c(O)c1)O2 (stereo not given)
inactive: dose: 3.12 mg/kg/injection, schedule: Q01DX005 (ip), vehicle: Klucel (hydroxypropylcellulose) (HPC) 86 % of control | dose: 6.25 mg/kg/injection, schedule: Q01DX005 (ip), vehicle: Klucel (hydroxypropylcellulose) (HPC) 91 % of control

CN1C(=O)C2(C)SSC1(C)C(=O)N2C
inactive: dose: 6.25 mg/kg/injection, schedule: Q01DX009 (ip), vehicle: saline 110 % of control | dose: 12.5 mg/kg/injection, schedule: Q01DX009 (ip), vehicle: saline 108 % of control | dose: 25.0 mg/kg/injection, schedule: Q01DX009 (ip), vehicle: saline 107 % of control

CCB1OCC(C2OC(=O)C3OB(CC)OC32)O1 (stereo not given)
inactive: dose: 50.0 mg/kg/injection, schedule: Q01DX005 (ip), vehicle: saline + Tween-80 + alcohol 101 % of control | dose: 100.0 mg/kg/injection, schedule: Q01DX005 (ip), vehicle: saline + Tween-80 + alcohol 101 % of control | dose: 200.0 mg/kg/injection, schedule: Q01DX005 (ip), vehicle: saline + Tween-80 + alcohol 95 % of control

CCC(=O)NN(Cn1c(=S)sc2ccccc21)Cn1c(=S)sc2ccccc21
inactive: [3] 99 % of control | [4] 89 % of control | [5] 93 % of control

CC1(C)CC2CCCCN2CO1 (stereo not given)
inactive: dose: 50.0 mg/kg/injection, schedule: Q01DX005 (ip), vehicle: saline 112 % of control | dose: 100.0 mg/kg/injection, schedule: Q01DX005 (ip), vehicle: saline 108 % of control

CC(=O)OC1CCC2C(=CCC3C2(C)C(=O)CC2(C)C(C4(C)OC(C(C)C)=CC4=O)C(O)CC32C)C1(C)C (stereo not given)
inactive: dose: 9.63 mg/kg/injection, schedule: Q01DX005 (ip), vehicle: saline + Tween-80 + alcohol 111 % of control | dose: 19.25 mg/kg/injection, schedule: Q01DX005 (ip), vehicle: saline + Tween-80 + alcohol 111 % of control | dose: 38.5 mg/kg/injection, schedule: Q01DX005 (ip), vehicle: saline + Tween-80 + alcohol 106 % of control | dose: 77.0 mg/kg/injection, schedule: Q01DX005 (ip), vehicle: saline + Tween-80 + alcohol 97 % of control

CN1C(c2cccnc2)=NCC12CCCC2
inactive: dose: 7.5 mg/kg/injection, schedule: Q01DX005 (ip), vehicle: saline 98 % of control | dose: 15.0 mg/kg/injection, schedule: Q01DX005 (ip), vehicle: saline 96 % of control | dose: 30.0 mg/kg/injection, schedule: Q01DX005 (ip), vehicle: saline 97 % of control

NNC(=O)CN1c2ccccc2Sc2ccc(Cl)cc21
inactive: [6] 104 % of control | [7] 95 % of control | [8] 97 % of control | [9] 99 % of control

Clc1ccc(-c2ncnc3c2Cc2ccccc2-3)cc1
inactive: [10] 104 % of control | [11] 100 % of control | [12] 104 % of control

NNc1ncnc2c1ccn2C1OC(CO)C(O)C1O (stereo not given)
inactive: [1] 108 % of control | [2] 113 % of control | dose: 37.5 mg/kg/injection, schedule: Q01DX009 (ip), vehicle: saline with Tween-80 118 % of control

CCO/C=N\c1c(NC(N)=O)cnn1Cc1ccccc1
inactive: [13] 96 % of control | dose: 200.0 mg/kg/injection, schedule: Q01DX001 (ip), vehicle: saline with Tween-80 93 % of control | dose: 400.0 mg/kg/injection, schedule: Q01DX001 (ip), vehicle: saline with Tween-80 98 % of control

CCSc1nc(C=O)c(Cc2ccc(Br)cc2)c(=O)[nH]1
inactive: [10] 110 % of control | [11] 107 % of control | [12] 88 % of control

CC1CC2(OC2C)C(=O)OC2CCN(C)C/C=C(/COC(=O)C1(C)O)C2=O (stereo not given)
inactive: dose: 3.12 mg/kg/injection, schedule: Q01DX009 (ip), vehicle: Klucel (hydroxypropylcellulose) (HPC) 105 % of control | [6] 99 % of control | [7] 103 % of control | [8] 99 % of control | dose: 40.0 mg/kg/injection, schedule: Q01DX009 (ip), vehicle: Klucel (hydroxypropylcellulose) (HPC) 110 % of control | dose: 50.0 mg/kg/injection, schedule: Q04DX002 (ip), vehicle: saline 108 % of control | dose: 80.0 mg/kg/injection, schedule: Q01DX009 (ip), vehicle: Klucel (hydroxypropylcellulose) (HPC) 110 % of control | dose: 100.0 mg/kg/injection, schedule: Q04DX002 (ip), vehicle: saline 101 % of control | dose: 160.0 mg/kg/injection, schedule: Q01DX009 (ip), vehicle: Klucel (hydroxypropylcellulose) (HPC) 100 % of control | dose: 200.0 mg/kg/injection, schedule: Q04DX002 (ip), vehicle: saline 106 % of control

CCCCCCCCCCCC(=O)N(CCOC(=O)C(C)(C)C)CCOC(=O)C(C)(C)C
inactive: [8] 97 % of control | [9] 104 % of control and 113 % of control and 94 % of control | [14] 100 % of control (2×) and 111 % of control | dose: 200.0 mg/kg/injection, schedule: Q01DX009 (ip), vehicle: Klucel (hydroxypropylcellulose) (HPC) 99 % of control and 120 % of control | dose: 400.0 mg/kg/injection, schedule: Q01DX009 (ip), vehicle: Klucel (hydroxypropylcellulose) (HPC) 108 % of control

CCC(C)Sc1nc2ccc(NC(=O)/C=C/C(=O)O)cc2s1 (stereo not given)
inactive: dose: 100.0 mg/kg/injection, schedule: Q04DX003 (ip), vehicle: Klucel (hydroxypropylcellulose) (HPC) 95 % of control | dose: 200.0 mg/kg/injection, schedule: Q04DX003 (ip), vehicle: Klucel (hydroxypropylcellulose) (HPC) 100 % of control

COC(=O)C1([Se]c2ccccc2)CCN2CCC(OCc3ccccc3[N+](=O)[O-])C21 (stereo not given)
inactive: dose: 25.0 mg/kg/injection, schedule: Q01DX001 (ip), vehicle: saline with Tween-80 90 % of control | dose: 50.0 mg/kg/injection, schedule: Q01DX001 (ip), vehicle: saline with Tween-80 105 % of control | [13] 108 % of control and 89 % of control

Cn1c([N+](=O)[O-])cnc1/C=C1\CCc2cc(OCCN3CCCC3)ccc2C1=O
inactive: [2] 90 % of control | dose: 25.0 mg/kg/injection, schedule: Q01DX009 (ip), vehicle: saline with Tween-80 93 % of control

O=C(Nc1ccccc1-c1ccccc1)c1cccc2ccccc12
inactive: [15] 106 % of control | [16] 94 % of control | [17] 90 % of control

Cc1ccc(NCCCN2CCN(CCCNc3ccc(C)c4sc5ccccc5c(=O)c34)CC2)c2c(=O)c3ccccc3sc12
inactive: dose: 0.5 mg/kg/injection, schedule: Q01DX005 (ip), vehicle: saline with Tween-80 97 % of control | dose: 1.0 mg/kg/injection, schedule: Q01DX005 (ip), vehicle: saline with Tween-80 88 % of control | dose: 2.0 mg/kg/injection, schedule: Q01DX005 (ip), vehicle: saline with Tween-80 97 % of control | dose: 4.0 mg/kg/injection, schedule: Q01DX005 (ip), vehicle: saline with Tween-80 90 % of control

CNC(=O)N(C)C(=O)c1ccncc1C(=O)N(C(=O)NC1CCCCC1)C1CCCCC1
inactive: [15] 98 % of control | [16] 89 % of control | [17] 89 % of control

CN(CCC(=O)c1ccc(Cl)cc1)CCC(=O)c1ccc(Cl)cc1
inactive: [3] 117 % of control | [4] 108 % of control | [5] 104 % of control

O=C1c2ccccc2NC1c1ccc2ccccc2n1 (stereo not given)
inactive: [8] 94 % of control | [9] 93 % of control | [14] 86 % of control

CCOC(=O)C12CC(COc3ccc([N+](=O)[O-])cc3)ON1OC(COc1ccc([N+](=O)[O-])cc1)C2 (stereo not given)
inactive: dose: 15.0 mg/kg/injection, schedule: Q01DX005 (ip), vehicle: saline with Tween-80 93 % of control | dose: 30.0 mg/kg/injection, schedule: Q01DX005 (ip), vehicle: saline with Tween-80 90 % of control | dose: 60.0 mg/kg/injection, schedule: Q01DX005 (ip), vehicle: saline with Tween-80 86 % of control and 88 % of control
